US20250171437A1 (Agios Pharmaceuticals,Inc., priority 2022, published 2025)

Target: T1, human PAH with the R408W mutation (A375 R408W cells) (Homo sapiens, UniProt P00439, R408W)
T1 construct: expressed in transfected cells
T1 sequence (P00439 1-452 R408W): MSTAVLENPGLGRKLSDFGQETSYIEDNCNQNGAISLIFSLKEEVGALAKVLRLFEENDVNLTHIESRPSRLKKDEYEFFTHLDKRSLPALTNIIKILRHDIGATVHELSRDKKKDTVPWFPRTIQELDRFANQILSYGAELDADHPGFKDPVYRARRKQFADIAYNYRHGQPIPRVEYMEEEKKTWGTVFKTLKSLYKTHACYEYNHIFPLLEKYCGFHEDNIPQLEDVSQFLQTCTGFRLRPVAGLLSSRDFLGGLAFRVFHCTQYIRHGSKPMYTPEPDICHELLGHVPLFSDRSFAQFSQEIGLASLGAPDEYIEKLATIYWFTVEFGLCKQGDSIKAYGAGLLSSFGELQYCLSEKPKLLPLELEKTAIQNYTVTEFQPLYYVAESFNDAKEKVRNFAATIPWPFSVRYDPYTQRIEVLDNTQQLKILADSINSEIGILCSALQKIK
Assay: Cell Based Phenylalanine Flux Assay
Conditions: 24 hrs with compound, then 20 μM sepiapterin and 800 μM 13C9,15N-Phenylalanine for 4 hours, 13C-Tyrosine by LC-MS, average where tested multiple times
Summary of the method: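 Puromycin-selected A375 line, lentiviral hPAH R408W; cmpd 24 h, 37 °C, 5% CO2, 0.5% DMSO; then 20 μM sepiapterin + 800 μM 13C9,15N-Phe, 4 h; media extracted in 80% MeCN; 13C-Tyr by LC-MS; AC50 from 10-pt curves.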

[1] = A375 cells expressing R408W PAH

| Compound | AC50 (A375 R408W cells) | AC50 [1] |
| --- | --- | --- |
| Cc1ccc2nc([C@@H]3c4nc[nH]c4CCN3C(=O)c3ccnn3C(F)F)oc2c1 [Example 317, (S)-(1-(difluoromethyl)-1H-pyrazol-5-yl)(4-(6-methylbenzo[d]oxazol-2-yl)-6,7-dihydro-1H-imidazo[4,5-c]pyridin-5(4H)-yl)methanone] | ≤ 500 nM |  |
| Cc1nc(C(C)(C)O)oc1C(=O)N1CCc2[nH]cnc2[C@H]1c1nc2cccc(F)c2o1 [Example 268, (S)-(4-(7-fluorobenzo[d]oxazol-2-yl)-6,7-dihydro-1H-imidazo[4,5-c]pyridin-5(4H)-yl)(2-(2-hydroxypropan-2-yl)-4-methyloxazol-5-yl)methanone] | 500 to 1000 nM |  |
| CC(C)(O)c1nc(C(F)F)c(C(=O)N2CCc3[nH]cnc3[C@@H]2c2nc3cc(Cl)cc(F)c3o2)o1 [Example 606, (R)-(4-(5-chloro-7-fluorobenzo[d]oxazol-2-yl)-6,7-dihydro-1H-imidazo[4,5-c]pyridin-5(4H)-yl)(4-(difluoromethyl)-2-(2-hydroxypropan-2-yl)oxazol-5-yl)methanone] | ≤ 500 nM |  |
| O=C(c1nnc(-c2ccc(F)cc2)o1)N1CCc2[nH]cnc2[C@H]1c1nc2cc(F)ccc2o1 [Example 27, (S)-(4-(5-fluorobenzo[d]oxazol-2-yl)-6,7-dihydro-1H-imidazo[4,5-c]pyridin-5(4H)-yl)(5-(4-fluorophenyl)-1,3,4-oxadiazol-2-yl)methanone] | ≤ 500 nM |  |
| Cn1cc(-c2ccc3c(C(=O)N4CCc5[nH]cnc5[C@H]4c4nc5c(F)cccc5o4)cnn3c2)cn1 [Example 541, (S)-(4-(4-fluorobenzo[d]oxazol-2-yl)-6,7-dihydro-1H-imidazo[4,5-c]pyridin-5(4H)-yl)(6-(1-methyl-1H-pyrazol-4-yl)pyrazolo[1,5-a]pyridin-3-yl)methanone] | ≤ 500 nM |  |
| Cc1cccc2nc([C@H]3c4nc[nH]c4CCN3C(=O)c3ocnc3C(F)F)oc12 [Example 394, (R)-(4-(difluoromethyl)oxazol-5-yl)(4-(7-methylbenzo[d]oxazol-2-yl)-6,7-dihydro-1H-imidazo[4,5-c]pyridin-5(4H)-yl)methanone] | 500 to 1000 nM |  |
| CC(C)(O)c1nc(C(=O)N2CCc3[nH]cnc3C2c2nc3c(F)cccc3o2)no1 (stereo not shown) |  | 1000 to 5000 nM |
| O=C(c1ccnn1C(F)F)N1CCc2[nH]cnc2[C@H]1c1nc2cc(F)ccc2o1 [Example 93, (S)-(1-(difluoromethyl)-1H-pyrazol-5-yl)(4-(5-fluorobenzo[d]oxazol-2-yl)-6,7-dihydro-1H-imidazo[4,5-c]pyridin-5(4H)-yl)methanone] | 500 to 1000 nM |  |
| Cc1cccc2nc(C3c4nc[nH]c4CCN3C(=O)c3ccn(-c4ccccn4)n3)oc12 (stereo not shown) |  | 1000 to 5000 nM |
| O=C(CCc1cncs1)N1CCc2[nH]cnc2[C@H]1c1nc2cccc(F)c2o1 [Example 409, (S)-1-(4-(7-fluorobenzo[d]oxazol-2-yl)-6,7-dihydro-1H-imidazo[4,5-c]pyridin-5(4H)-yl)-3-(thiazol-5-yl)propan-1-one] | 500 to 1000 nM |  |
| O=C(c1ocnc1C(F)F)N1CCc2[nH]cnc2[C@@H]1c1nc2ccc(Br)cc2o1 [Example 146, (R)-(4-(6-bromobenzo[d]oxazol-2-yl)-6,7-dihydro-1H-imidazo[4,5-c]pyridin-5(4H)-yl)(4-(difluoromethyl)oxazol-5-yl)methanone] | 500 to 1000 nM |  |
| Cc1ccc2oc([C@@H]3c4nc[nH]c4CCN3C(=O)c3oc(-c4cnn(C)c4)nc3C(F)F)nc2c1 [Example 771, (S)-(4-(difluoromethyl)-2-(1-methyl-1H-pyrazol-4-yl)oxazol-5-yl)(4-(5-methylbenzo[d]oxazol-2-yl)-6,7-dihydro-1H-imidazo[4,5-c]pyridin-5(4H)-yl)methanone] | ≤ 500 nM |  |
| CN(C)CCc1ccc2c(C(=O)N3CCc4[nH]cnc4[C@H]3c3nc4cc(F)ccc4o3)cnn2c1 [Example 47, (S)-(6-(2-(dimethylamino)ethyl)pyrazolo[1,5-a]pyridin-3-yl)(4-(5-fluorobenzo[d]oxazol-2-yl)-6,7-dihydro-1H-imidazo[4,5-c]pyridin-5(4H)-yl)methanone] | 1000 to 5000 nM |  |
| Cc1ccc2oc(C3c4nc[nH]c4CCN3C(=O)c3cnn4cc(CCN(C)C)ccc34)nc2c1 (stereo not shown) |  | 1000 to 5000 nM |
| O=C(c1cnn2cc(N3CCC4(CC3)CC4)ccc12)N1CCc2[nH]cnc2[C@H]1c1nc2cccc(F)c2o1 [Example 395, (S)-(6-(6-azaspiro[2.5]octan-6-yl)pyrazolo[1,5-a]pyridin-3-yl)(4-(7-fluorobenzo[d]oxazol-2-yl)-6,7-dihydro-1H-imidazo[4,5-c]pyridin-5(4H)-yl)methanone] | 500 to 1000 nM |  |
| O=C(c1oc(N2CCC(F)CC2)nc1C(F)F)N1CCc2[nH]cnc2[C@H]1c1nc2cccc(F)c2o1 [Example 676, (S)-(4-(difluoromethyl)-2-(4-fluoropiperidin-1-yl)oxazol-5-yl)(4-(7-fluorobenzo[d]oxazol-2-yl)-6,7-dihydro-1H-imidazo[4,5-c]pyridin-5(4H)-yl)methanone] | ≤ 500 nM |  |

| Compound | AC50 (A375 R408W cells) | AC50 [1] |
| --- | --- | --- |
| CC(C)(O)c1nc(C(F)F)c(C(=O)N2CCc3[nH]cnc3[C@H]2c2nc3cc(Br)ccc3o2)o1 [Example 415, [(4S)-4-(5-bromo-1,3-benzoxazol-2-yl)-1,4,6,7-tetrahydroimidazo[4,5-c]pyridin-5-yl]-[4-(difluoromethyl)-2-(1-hydroxy-1-methyl-ethyl)oxazol-5-yl]methanone] | 500 to 1000 nM |  |
| Cn1cncc1-c1nc(C(F)(F)F)c(C(=O)N2CCc3[nH]cnc3[C@@H]2c2nc3cc(F)ccc3o2)o1 [Example 792, (R)-(4-(5-fluorobenzo[d]oxazol-2-yl)-6,7-dihydro-1H-imidazo[4,5-c]pyridin-5(4H)-yl)(2-(1-methyl-1H-imidazol-5-yl)-4-(trifluoromethyl)oxazol-5-yl)methanone] | 1000 to 5000 nM |  |
| Cc1cccc2nc([C@@H]3c4nc[nH]c4CCN3C(=O)c3nnc(-c4ncccc4F)o3)oc12 [Example 858, (S)-(5-(3-fluoropyridin-2-yl)-1,3,4-oxadiazol-2-yl)(4-(7-methylbenzo[d]oxazol-2-yl)-6,7-dihydro-1H-imidazo[4,5-c]pyridin-5(4H)-yl)methanone] | ≤ 500 nM |  |
| CC(C)(O)c1nc(C(F)F)c(C(=O)N2CC(C)(C)c3[nH]cnc3C2c2nc3cc(F)ccc3o2)o1 (stereo not shown) |  | ≥ 5000 nM |
| CC(C)(O)c1nc(C(F)F)c(C(=O)N2CCc3[nH]cnc3[C@H]2c2nc3cc(Cl)cc(F)c3o2)o1 [Example 605, (S)-(4-(5-chloro-7-fluorobenzo[d]oxazol-2-yl)-6,7-dihydro-1H-imidazo[4,5-c]pyridin-5(4H)-yl)(4-(difluoromethyl)-2-(2-hydroxypropan-2-yl)oxazol-5-yl)methanone] | ≤ 500 nM |  |
| CN1CCN(c2ccc3c(C(=O)N4CCc5[nH]cnc5[C@@H]4c4nc5c(F)cccc5o4)cnn3c2)CC1 [Example 476, (R)-(4-(4-fluorobenzo[d]oxazol-2-yl)-6,7-dihydro-1H-imidazo[4,5-c]pyridin-5(4H)-yl)(6-(4-methylpiperazin-1-yl)pyrazolo[1,5-a]pyridin-3-yl)methanone] | 1000 to 5000 nM |  |
| Cc1ncoc1C(=O)N1CC2(CC2)c2[nH]cnc2C1c1nc2cc(F)ccc2o1 (stereo not shown) |  | ≥ 5000 nM |
| O=C(c1ccnn1C(F)(F)F)N1CCc2[nH]cnc2[C@@H]1c1nc2cc(F)ccc2o1 [Example 262, (R)-(4-(5-fluorobenzo[d]oxazol-2-yl)-6,7-dihydro-1H-imidazo[4,5-c]pyridin-5(4H)-yl)(1-(trifluoromethyl)-1H-pyrazol-5-yl)methanone] | 500 to 1000 nM |  |
| O=C(c1nncn1C1CC1)N1CCc2[nH]cnc2C1c1nc2ccc(F)cc2o1 (stereo not shown) |  | 1000 to 5000 nM |
| Cc1cccc2nc([C@@H]3c4nc[nH]c4CCN3C(=O)c3ccnn3C)oc12 [Example 747, (S)-(1-methyl-1H-pyrazol-5-yl)(4-(7-methylbenzo[d]oxazol-2-yl)-6,7-dihydro-1H-imidazo[4,5-c]pyridin-5(4H)-yl)methanone] | ≤ 500 nM |  |
| O=C(c1ocnc1C(F)F)N1CCc2[nH]cnc2[C@H]1c1nc2cc(F)cc(F)c2o1 [Example 309, (S)-(4-(5,7-difluorobenzo[d]oxazol-2-yl)-6,7-dihydro-1H-imidazo[4,5-c]pyridin-5(4H)-yl)(4-(difluoromethyl)oxazol-5-yl)methanone] | ≤ 500 nM |  |
| O=C(c1ccnn1CC(F)F)N1CCc2[nH]cnc2[C@H]1c1nc2ccccc2o1 [Example 835, (S)-(4-(benzo[d]oxazol-2-yl)-6,7-dihydro-1H-imidazo[4,5-c]pyridin-5(4H)-yl)(1-(2,2-difluoroethyl)-1H-pyrazol-5-yl)methanone] | ≤ 500 nM |  |
| (R)-(4-(5-fluorobenzo[d]oxazol-2-yl)-6,7-dihydro-1H-imidazo[4,5-c]pyridin-5(4H)-yl)(6-(methoxymethyl)pyrazolo[1,5-a]pyridin-3-yl)methanone [Example 30] | ≥ 5000 nM |  |
| Cn1ncc(C(=O)N2CCc3[nH]cnc3C2c2nc3cc(F)ccc3o2)c1C(F)F (stereo not shown) |  | ≥ 5000 nM |
| COc1cc(F)cc2nc([C@H]3c4nc[nH]c4CCN3C(=O)c3ocnc3C(F)F)oc12 [Example 717, (R)-(4-(difluoromethyl)oxazol-5-yl)(4-(5-fluoro-7-methoxybenzo[d]oxazol-2-yl)-6,7-dihydro-1H-imidazo[4,5-c]pyridin-5(4H)-yl)methanone] | 500 to 1000 nM |  |
